Each block holds one compound with its values, some of them ahead of it.
Biological target: T1, human MRGPRX2 (Homo sapiens, UniProt Q96LB1)
T1 construct: expressed in transfected cells; host or cells: CHO cells, stably transfected (G418 and Hygromycin B selection)
T1 sequence (Q96LB1 1-330): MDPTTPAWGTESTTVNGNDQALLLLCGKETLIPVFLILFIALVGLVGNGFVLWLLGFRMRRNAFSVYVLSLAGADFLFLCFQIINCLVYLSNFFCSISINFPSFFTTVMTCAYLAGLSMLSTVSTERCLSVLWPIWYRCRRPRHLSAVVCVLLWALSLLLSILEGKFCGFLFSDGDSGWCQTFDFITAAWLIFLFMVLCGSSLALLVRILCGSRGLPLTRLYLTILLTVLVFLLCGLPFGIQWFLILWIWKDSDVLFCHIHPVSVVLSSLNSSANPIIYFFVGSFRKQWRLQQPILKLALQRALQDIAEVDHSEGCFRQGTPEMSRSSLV
Test: MRGPRX2 activity: IP-One Gq HTRF assay in CHO cells, antagonism versus 0.3 uM Cortistatin-14
Format: cell-based
Conditions: versus 0.3 uM Cortistatin-14 agonist, CHO cells expressing human MRGPRX2, read-out: MRGPRX2 Antagonist Activity
Protocol: CHO cells stably transfected to express human MRGPRX2 were maintained in an incubator at 37° C. with 5% CO2 and grown in F12 (HAM) media with 10% fetal bovine serum (FBS), 1% Glutamax, 1% penicillin/streptomycin, 800 μg/mL Geneticin (G418), and 300 μg/mL Hygromycin B.
Cells were plated in a 384-well assay plate at 20,000 cells per well in 12 μL of Opti-MEM and kept in an incubator overnight. On the day of the assay, compounds solubilized at 10 mM in DMSO were added as a 10-point curve (30 uM final top concentration with 1:3 serial dilutions) using a Tecan D300E digital dispenser. Agonists were diluted in assay buffer (final concentrations of 5.7 mM Tris-HCl, 43 mM NaCl, 50 mM LiCl, pH=8) and 2 μL of the agonist Cortistatin-14 (CPC Scientific, catalog CORT-002) are added to each well. Final concentrations of agonists were 0.3 μM Cortistatin. Final concentrations of DMSO were kept consistent across the plate. Plates were incubated in the dark for 1 h at 37° C. and then for 1 h at room temperature. IP-1 standards and HTRF detection reagents were added according to the IP-One—Gq Kit purchased from Cisbio (part number 62IPAPEJ) and incubated in the dark for 1 h at room temperature. The plate was read on a Molecular Devices SpectraMax iD5 plate reader. The HTRF ratio was calculated from the raw data and graphed using GraphPad Prism to calculate an IC50 value for each compound.
The activity ranges are denoted as follows: “+++++” denotes antagonist activity <100 nM; “++++” denotes antagonist activity between 100 and 500 nM; “+++” denotes activity between 501 and 1000 nM; “++” denotes activity between 1001 and 2500 nM; and “+” denotes activity >2500 nM.

Structure (SMILES): O=S1(=O)N=C(NCc2ccc(F)cc2F)Nc2c1ccc(F)c2Oc1ccccc1Cl [Compound 1-29, 5-(2-chlorophenoxy)-3-((2,4-difluorobenzyl)amino)-6-fluoro-4H-benzo[e][1,2,4]thiadiazine 1,1-dioxide]
- IC50: < 100 nM

Structure (SMILES): Cc1cccnc1CNC1=NS(=O)(=O)c2ccc(F)c(Oc3ccccc3Cl)c2N1 [Compound 1-32, 5-(2-chlorophenoxy)-6-fluoro-3-(((3-methylpyridin-2-yl)methyl)amino)-4H-benzo[e][1,2,4]thiadiazine 1,1-dioxide]
- IC50: 100 to 500 nM

Structure (SMILES): O=S1(=O)N=C(NCc2ncccc2F)Nc2c1ccc(F)c2Oc1c(F)cccc1F [Compound 1-33, 5-(2,6-difluorophenoxy)-6-fluoro-3-(((3-fluoropyridin-2-yl)methyl)amino)-4H-benzo[e][1,2,4]thiadiazine 1,1-dioxide]
- IC50: 501 to 1000 nM

Structure (SMILES): CC(C)(C)c1cccc(Cl)c1Oc1c(F)ccc2c1NC(NCc1ncccc1F)=NS2(=O)=O [Compound 1-36, 5-(2-(tert-butyl)-6-chlorophenoxy)-6-fluoro-3-(((3-fluoropyridin-2-yl)methyl)amino)-4H-benzo[e][1,2,4]thiadiazine 1,1-dioxide]
- IC50: < 100 nM

Structure (SMILES): O=S1(=O)N=C(NCc2ncccc2O)Nc2c1ccc(F)c2Oc1ccccc1Cl [Compound 1-37, 5-(2-chlorophenoxy)-6-fluoro-3-(((3-hydroxypyridin-2-yl)methyl)amino)-4H-benzo[e][1,2,4]thiadiazine 1,1-dioxide]
- IC50: > 2500 nM

Structure (SMILES): O=S1(=O)N=C(NCc2ncccc2F)Nc2c1cc(Cl)c(F)c2Oc1ccccc1Cl [Compound 1-47, 7-chloro-5-(2-chlorophenoxy)-6-fluoro-3-(((3-fluoropyridin-2-yl)methyl)amino)-4H-benzo[e][1,2,4]thiadiazine 1,1-dioxide]
- IC50: 501 to 1000 nM

Structure (SMILES): O=S1(=O)N=C(NCc2ncccc2F)Nc2c1cc(F)c(Cl)c2Oc1ccccc1Cl [Compound 1-48, 6-chloro-5-(2-chlorophenoxy)-7-fluoro-3-(((3-fluoropyridin-2-yl)methyl)amino)-4H-benzo[e][1,2,4]thiadiazine 1,1-dioxide]
- IC50: < 100 nM

Structure (SMILES): O=S1(=O)N=C(NCc2ncccc2F)Nc2c1ccc(Cl)c2Oc1cccc(Cl)c1Cl [Compound 1-50, 6-chloro-5-(2,3-dichlorophenoxy)-3-(((3-fluoropyridin-2-yl)methyl)amino)-4H-benzo[e][1,2,4]thiadiazine 1,1-dioxide]
- IC50: < 100 nM

Structure (SMILES): O=S1(=O)N=C(NCc2ncccc2F)Nc2c1ccc(Cl)c2Oc1cccc(F)c1Cl [Compound 1-51, 6-chloro-5-(2-chloro-3-fluorophenoxy)-3-(((3-fluoropyridin-2-yl)methyl)amino)-4H-benzo[e][1,2,4]thiadiazine 1,1-dioxide]
- IC50: < 100 nM

Structure (SMILES): O=S1(=O)N=C(N2CCc3cccnc3C2)Nc2c1ccc(F)c2Oc1ccccc1Cl [Compound 1-52, 5-(2-chlorophenoxy)-3-(5,8-dihydro-1,7-naphthyridin-7(6H)-yl)-6-fluoro-4H-benzo[e][1,2,4]thiadiazine 1,1-dioxide]
- IC50: > 2500 nM

Second part, the compound after the results:

- IC50: 100 to 500 nM
Structure (SMILES): COc1cccnc1CNC1=NS(=O)(=O)c2ccc(F)c(Oc3ccccc3Cl)c2N1 [Compound 1-30, 5-(2-chlorophenoxy)-6-fluoro-3-(((3-methoxypyridin-2-yl)methyl)amino)-4H-benzo[e][1,2,4]thiadiazine 1,1-dioxide]

- IC50: 100 to 500 nM
Structure (SMILES): COc1ccccc1CNC1=NS(=O)(=O)c2ccc(F)c(Oc3ccccc3Cl)c2N1 [Compound 1-31, 5-(2-chlorophenoxy)-6-fluoro-3-((2-methoxybenzyl)amino)-4H-benzo[e][1,2,4]thiadiazine 1,1-dioxide]

- IC50: < 100 nM
Structure (SMILES): O=S1(=O)N=C(NCc2ncccc2F)Nc2c1ccc(F)c2Oc1c(Cl)ccc2ccccc12 [Compound 1-34, 5-((2-chloronaphthalen-1-yl)oxy)-6-fluoro-3-(((3-fluoropyridin-2-yl)methyl)amino)-4H-benzo[e][1,2,4]thiadiazine 1,1-dioxide]

- IC50: 1000 to 2500 nM
Structure (SMILES): O=S1(=O)N=C(NCc2ncccc2F)Nc2c1ccc(F)c2Oc1ccccc1-c1ccccc1 [Compound 1-35, 5-([1,1′-biphenyl]-2-yloxy)-6-fluoro-3-(((3-fluoropyridin-2-yl)methyl)amino)-4H-benzo[e][1,2,4]thiadiazine 1,1-dioxide]

- IC50: < 100 nM
Structure (SMILES): O=S1(=O)N=C(NCc2ncccc2F)Nc2c1ccc(F)c2Oc1cc(Cl)ccc1Cl [Compound 1-38, 5-(2,5-dichlorophenoxy)-6-fluoro-3-(((3-fluoropyridin-2-yl)methyl)amino)-4H-benzo[e][1,2,4]thiadiazine 1,1-dioxide]

- IC50: < 100 nM
Structure (SMILES): O=S1(=O)N=C(NCc2ncccc2F)Nc2c1ccc(F)c2Oc1ccc(F)cc1F [Compound 1-39, 5-(2,4-difluorophenoxy)-6-fluoro-3-(((3-fluoropyridin-2-yl)methyl)amino)-4H-benzo[e][1,2,4]thiadiazine 1,1-dioxide]

- IC50: 100 to 500 nM
Structure (SMILES): O=S1(=O)N=C(NCc2ncccc2F)Nc2c1ccc(F)c2Oc1cccc(F)c1F [Compound 1-40, 5-(2,3-difluorophenoxy)-6-fluoro-3-(((3-fluoropyridin-2-yl)methyl)amino)-4H-benzo[e][1,2,4]thiadiazine 1,1-dioxide]

- IC50: 100 to 500 nM
Structure (SMILES): O=S1(=O)N=C(NCc2ncccc2F)Nc2c(Oc3ccccc3Cl)c(F)cc(Cl)c21 [Compound 1-41, 8-chloro-5-(2-chlorophenoxy)-6-fluoro-3-(((3-fluoropyridin-2-yl)methyl)amino)-4H-benzo[e][1,2,4]thiadiazine 1,1-dioxide]

- IC50: 100 to 500 nM
Structure (SMILES): O=S1(=O)N=C(NCc2ncccc2F)Nc2c(Oc3ccccc3Cl)c(Cl)cc(F)c21 [Compound 1-42, 6-chloro-5-(2-chlorophenoxy)-8-fluoro-3-(((3-fluoropyridin-2-yl)methyl)amino)-4H-benzo[e][1,2,4]thiadiazine 1,1-dioxide]

- IC50: < 100 nM
Structure (SMILES): O=S1(=O)N=C(NCc2ncccc2F)Nc2c1ccc(Cl)c2Oc1ccccc1Cl [Compound 1-43, 6-chloro-5-(2-chlorophenoxy)-3-(((3-fluoropyridin-2-yl)methyl)amino)-4H-benzo[e][1,2,4]thiadiazine 1,1-dioxide]

- IC50: 100 to 500 nM
Structure (SMILES): [2H]C([2H])(NC1=NS(=O)(=O)c2ccc(F)c(Oc3ccccc3Cl)c2N1)c1ccccc1 [Compound 1-44, 5-(2-chlorophenoxy)-6-fluoro-3-((phenylmethyl-d2)amino)-4H-benzo[e][1,2,4]thiadiazine 1,1-dioxide]

- IC50: 100 to 500 nM
Structure (SMILES): Cc1cc(F)c(Oc2ccccc2Cl)c2c1S(=O)(=O)N=C(NCc1ncccc1F)N2 [Compound 1-45, 5-(2-chlorophenoxy)-6-fluoro-3-(((3-fluoropyridin-2-yl)methyl)amino)-8-methyl-4H-benzo[e][1,2,4]thiadiazine 1,1-dioxide]

- IC50: < 100 nM
Structure (SMILES): O=S1(=O)N=C(NCc2cccc(F)n2)Nc2c1ccc(Cl)c2Oc1ccccc1Cl [Compound 1-46, 6-chloro-5-(2-chlorophenoxy)-3-(((6-fluoropyridin-2-yl)methyl)amino)-4H-benzo[e][1,2,4]thiadiazine 1,1-dioxide]

- IC50: < 100 nM
Structure (SMILES): O=S1(=O)N=C(NCc2ccccc2)Nc2c1ccc(F)c2Oc1ccccc1Cl [Compound 1-49, 3-(benzylamino)-5-(2-chlorophenoxy)-6-fluoro-4H-benzo[e][1,2,4]thiadiazine 1,1-dioxide]
